We go through 1 compound from patent US20250313563A1, “GLYCOGEN SYNTHASE KINASE 3 INHIBITORS AND USES THEREOF” (The Broad Institute, Inc., priority 2022, published 2025).

One experiment concerns the target GSK3α (Homo sapiens (Human), UniProt P49840). In words: pThr231 tau phosphorylation plate-based assay in HEK-huTau cells transfected with GSK3α. It counts as cell-based. Particulars: HEK-huTau cells transfected with human GSK3α; 10-point dose response, 2 hours; read-out: GSK3α IC50 (inhibition of pThr231). The protocol: (§1) HEK293 or SH-SY5Y cells were obtained from American Type Culture Collection (ATCC, Manassas, VA) and cultured in Dulbecco's modified Eagle's medium (DMEM) supplemented with 10% fetal bovine serum (FBS), 10 units/ml penicillin, and 10 μg/ml streptomycin (all reagents were purchased from Gibco, Waltham, MA). Cell cultures were maintained in a humidified 5% (v/v) CO2/air environment at 37° C. When the cells reached 50-80% confluence, they were transfected with a complex consisting of a 3:1 ratio of FuGENE 6 Transfection Reagent (Promega, Madison, WI) and plasmid DNA. Plasmid DNA was balanced out across reactions using an empty plasmid so that the same amount of DNA was added per well. This transfection complex was prepared following the manufacturers protocol and added directly to the cell media for 24 or 48 hours prior to lysis.
(§2) 293T cells stably expressing human 2N4R Tau were transfected with appropriate cDNA plasmids. 24 hours following transfection cells were treated with compound in a 10-point dose-response (from 1000× stocks of compound) and lysates harvested 2 hours later with cell extraction buffer (Life Technologies Cat #BN0001) or RIPA Buffer with Halt protease/phosphatase inhibitors added.
(§3) For pThr231 assay: Lysate was diluted 1:100 in assay buffer and Total Tau and pTau T231 was assessed by plate-based ELISA as per manufacturer instructions (MSD Cat #K15121D-1). Total fluorescence was measured using an Envison plate reader.
(§4) To test the potency and isoform selectivity of GSK3 small molecule inhibitors, HEK-huTau cells were transfected with plasmids containing either human GSK3α or GSK3β. Twenty-four hours after transfection, compounds were added at a 10-point dose response curve (at a range of 30 μM-3 nM) for a total of 2 hours, and cell lysates were probed for total tau and pThr231 using a plate-based assay.

The next experiment concerns the target human GSK3β (Homo sapiens (Human), UniProt P49841). Put plainly: pThr231 tau phosphorylation plate-based assay in HEK-huTau cells transfected with GSK3β. Format: cell-based. To be noted: HEK-huTau cells transfected with human GSK3β; 10-point dose response, 2 hours; read-out: GSK3β IC50 (inhibition of pThr231). How it is done:
as §1, §2, §3, §4

The target in a further experiment is NanoLuc-GSK3β (Homo sapiens (Human), UniProt P49841). Put plainly: NanoBRET residence time, GSK3β. Format: cell-based. To be noted: inhibitor at 10× IC50, BRET every 5 min for 3 hours. On the technique in general: In BRET a luciferase serves as donor, and the signal depends on an acceptor being close.
A further experiment addresses GSK3β (Rattus norvegicus (Rat), UniProt P18266). Put plainly: In vivo target engagement assay (chemoproteomics, kinobeads), GSK3β. To be noted: P10 rat cortex. How it is done:
(§5) Chemoproteomics competition was used to evaluate inhibitor selectivity and target engagement in vivo. Frozen cortexes were prepared for homogenization with 1.2 mL of Lysis Buffer (50 mM Tris-HCl, 0.8% NP-40 ((octylphenoxy poly(ethyleneoxy) ethanol)), 5% glycerol, 150 mM NaCl, 1.5 mM MgCl2, 25 mM NaF, 1 mM sodium vanadate, 1 mM DTT, pH 7.5 and supplemented with protease inhibitors). Tissues were homogenized in FastPrep-24 5G instrument at maximum oscillations for 20 seconds. The resulting brain homogenate was clarified by centrifugation for 1 h at 145 000 g, 4° C. The protein concentration of the supernatant was determined by BCA assay and each sample was diluted to final concentration of 5 mg/mL with lysis buffer. […] The dry peptide mixture was reconstituted in 15 μL of 0.1% trifluoro acetic acid and analyzed on ID nanoLC-MS/MS platform using a standardized 140 min method. Peptides were separated on an Easy-Spray column (75 μm×50 cm, PepMAP C18, 1.9 μm) at 250 nL/min, analyzed on a QExactive HF mass spectrometer at data dependent acquisition (DDA) mode with MS1 at 60,000 and MS2 at 15,000 resolution, respectively. […]
To measure direct target engagement of the compound for both GSK3α and GSK3β competitive chemoproteomics methodology was used. […] Enriched proteins were analyzed by liquid chromatography coupled with tandem mass spectrometry. […]

Experiment [1] has as its system 251 unique detected kinases in rat brain. In words: In vivo kinome selectivity (chemoproteomics, kinobeads). Particulars: 60 mg/kg. How it is done:
as §5
To investigate whether the effects of 837646 on tau phosphorylation were solely the result of GSK3 inhibition, additional kinases detected by mass spectrometry for compound engagement in the same brain lysates were profiled. […]

Usually IC50 stands for the concentration at which inhibition is half-maximal.

Chain of GSK3β (P18266 whole entry): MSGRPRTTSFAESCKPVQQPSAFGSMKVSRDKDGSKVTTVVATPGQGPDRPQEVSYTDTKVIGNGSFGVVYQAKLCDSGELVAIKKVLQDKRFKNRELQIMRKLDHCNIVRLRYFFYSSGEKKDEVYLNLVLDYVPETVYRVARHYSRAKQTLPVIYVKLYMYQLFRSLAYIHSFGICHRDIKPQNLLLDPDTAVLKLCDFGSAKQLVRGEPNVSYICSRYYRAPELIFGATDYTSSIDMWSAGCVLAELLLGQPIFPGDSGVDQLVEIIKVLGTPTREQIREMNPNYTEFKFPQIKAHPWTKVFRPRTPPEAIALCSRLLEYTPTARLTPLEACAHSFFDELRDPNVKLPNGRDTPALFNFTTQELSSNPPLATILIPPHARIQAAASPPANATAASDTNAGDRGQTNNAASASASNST
Chain of human GSK3β (P49841 whole entry): as the sequence (P18266 whole entry) above, with M240V, P390T, A392T, T400A, A402T counted along it
Chain of NanoLuc-GSK3β (P49841 whole entry): as the sequence (P18266 whole entry) above, with M240V, P390T, A392T, T400A, A402T counted along it
Chain of GSK3α (P49840 whole entry): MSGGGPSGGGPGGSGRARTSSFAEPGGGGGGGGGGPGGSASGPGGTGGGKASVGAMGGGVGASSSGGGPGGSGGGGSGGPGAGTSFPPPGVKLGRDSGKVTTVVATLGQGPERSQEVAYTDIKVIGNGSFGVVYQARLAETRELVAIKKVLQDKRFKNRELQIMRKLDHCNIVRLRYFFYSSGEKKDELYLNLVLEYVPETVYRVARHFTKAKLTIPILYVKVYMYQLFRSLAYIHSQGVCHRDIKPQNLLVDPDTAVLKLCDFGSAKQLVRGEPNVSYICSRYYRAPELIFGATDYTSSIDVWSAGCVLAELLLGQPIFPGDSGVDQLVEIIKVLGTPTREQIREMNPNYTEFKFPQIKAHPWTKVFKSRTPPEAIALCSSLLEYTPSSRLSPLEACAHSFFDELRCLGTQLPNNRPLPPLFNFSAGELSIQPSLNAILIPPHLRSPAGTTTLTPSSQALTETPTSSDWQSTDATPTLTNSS

Take `CCC1(c2cccc(C(F)(F)F)c2)C2=C(Nc3n[nH]cc31)C(F)C(C)(C)CC2=O` (single isomer, unassigned) [Compound 837646, 4-ethyl-8-fluoro-7,7-dimethyl-4-(3-(trifluoromethyl)phenyl)-2,4,6,7,8,9-hexahydro-5H-pyrazolo[3,4-b]quinolin-5-one]: the IC50 on GSK3α was 150 nM; at human GSK3β, 1000 nM. Besides, the “residence time at GSK3β” value on NanoLuc-GSK3β is “no difference in the residence time”. Also, the “binding to GSK3β, 24 hr” value at GSK3β (24 hr) is listed as “no significant binding detected”. Besides, the “target engagement for GSK3β, 3 hours” value on GSK3β (three hours after dosing (Cmax, 60 mg/kg)) is 40%. In experiment [1] (Cmax, of 251 unique kinases, apart from GSK3), the “number of off-target kinases with target engagement greater than 70%” value was determined as 6. In addition, in experiment [1] (out of 251 unique detected kinases), the “number of kinases with target engagement greater than 70% (including GSK3α)” value came to 7.
